Measurements as given in patent publication US11932634B2 (Gilead Sciences, Inc., priority 2021, dated 2024).

How the values were obtained:
[1] = tested on: Jurkat NFκB-luciferase cells; experiment: Jurkat NFκB-Luciferase Assay; type: cell-based; details: Homo sapiens; Jurkat NFκB-luciferase cells activated with anti-CD3 antibody (OKT3), 2.5 hrs at 37° C., One-Glo Ex; geometric mean; read-out: DGK NFKb Luciferase EC50;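 further: bioluminescence read-out normalized to DMSO basal activation and to maximum enhancement at 1 µM compound, rising signal indicating stronger T-cell activation through DGKα inhibition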
human DGKα = target: T1, human DGKα (Homo sapiens, UniProt P23743); experiment: DGKα Biochemical Activity Assay (ADP-Glo);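 further: recombinant enzyme converting diacylglycerol in lipid micelles with ATP, ADP formed detected by luminescence, IC50 from a four-parameter nonlinear fit, geometric mean across experiments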
T1 construct: purchased Carna Biosciences'; inferred from the same paragraph's 'obtained from Carna Biosciences')
T1 sequence (P23743 whole entry): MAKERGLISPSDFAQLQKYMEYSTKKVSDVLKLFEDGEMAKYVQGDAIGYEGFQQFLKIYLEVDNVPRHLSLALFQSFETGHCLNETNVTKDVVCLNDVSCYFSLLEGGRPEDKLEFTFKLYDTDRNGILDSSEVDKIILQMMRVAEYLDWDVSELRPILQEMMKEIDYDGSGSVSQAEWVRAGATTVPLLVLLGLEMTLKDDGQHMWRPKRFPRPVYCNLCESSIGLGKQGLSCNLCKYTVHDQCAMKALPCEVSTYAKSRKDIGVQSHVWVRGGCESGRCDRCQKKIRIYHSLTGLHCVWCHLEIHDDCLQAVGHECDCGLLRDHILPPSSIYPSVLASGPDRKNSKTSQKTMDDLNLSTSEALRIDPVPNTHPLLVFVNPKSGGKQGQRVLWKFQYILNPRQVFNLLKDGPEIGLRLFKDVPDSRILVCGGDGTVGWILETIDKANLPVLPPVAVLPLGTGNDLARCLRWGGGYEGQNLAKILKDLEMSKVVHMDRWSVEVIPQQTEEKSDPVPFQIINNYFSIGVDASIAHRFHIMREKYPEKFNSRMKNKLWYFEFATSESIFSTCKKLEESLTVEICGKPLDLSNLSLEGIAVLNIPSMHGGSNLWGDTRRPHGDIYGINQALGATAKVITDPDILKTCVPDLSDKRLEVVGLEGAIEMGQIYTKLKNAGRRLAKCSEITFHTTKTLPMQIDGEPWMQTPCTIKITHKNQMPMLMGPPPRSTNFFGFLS
Description: Alternatively, the enzymatic activity of human DGKα was monitored in a biochemical assay in the presence or absence of compounds and using micelles containing 18:1 Diacylglycerol (DAG), 16:0-18:1 PS (POPS) and Octylglucoside as substrate. DGKα activity led to conversion of DAG and ATP to Phosphatidic Acid (PA) and ADP. Levels of ADP were monitored by bioluminescence using the ADP-Glo Kinase Assay (Promega) and were indicative of DGKα activity.
Ten nanoliters of test compound dissolved in DMSO at various concentrations were dispensed into a 384-well low volume nonbinding service white plates (Corning #3824) using a Labcyte Echo instrument. Recombinant DGKα Biosciences) in assay buffer (5 μL in 50 mM MOPS [3-(N-morpholino) propanesulfonic acid], pH 7.2; 0.0025% Triton X-100; 1 mM dithiothreitol; 5 mM MgCl2, 200 μM ATP) was added to the compound-containing plate and was incubated for 15 minutes at 25° C. A substrate solution (5 μL in 1.7 mM 1,2-dioleoyl-sn-glycerol [18:1 DAG], 13.5 mM 1-palmitoyl-2-oleoyl-sn-glycero-3-phospho-L-serine [16:0-18:1 PS](POPS), 2 μM CaCl2), 100 mM Octylglucoside (OG), 1 mM DTT) (obtained from Carna Biosciences) diluted in DGK ALPHA assay buffer was then added to start the reaction. Final concentrations were 1 nM DGKα, 100 μM ATP, 1 μM calcium chloride, 0.85 mM 1,2-dioleoyl-sn-glycerol (18:1 DAG), 6.75 mM 1-palmitoyl-2-oleoyl-sn-glycero-3-phospho-L-serine (16:0-18:1 PS) (POPS), 1 μM CaCl2), 50 mM Octylglucoside (OG) and 5 mM MgCl2. The reaction mixture was incubated at 25° C. for 1 hour. ADP-Glo Reagent (10 μL, 10 mM Mg added) provided by the kit was added to each well and incubated at 25° C. for 40 minutes. Then, 20 μL of Kinase Detection Reagent was added and incubated at 25° C. for 40 minutes. Luciferase activity of each well was measured via luminescence on an Envision plate reader (PerkinElmer).
Least squares curve fittings were performed using a four-parameter variable slope nonlinear regression model. […] IC50 values from multiple experiments were averaged by geometric mean and the standard deviation was calculated.

Row | SMILES | EC50 [1] | IC50 (human DGKα)
1 | [2H]C([2H])([2H])n1c(=O)nc(N2CCOCc3c(C#CC(C)(C)C#N)cccc32)c2c(F)cccc21 [Example 95, 4-[1-[5-fluoro-2-oxo-1-(trideuteriomethyl)quinazolin-4-yl]-3,5-dihydro-2H-4,1-benzoxazepin-6-yl]-2,2-dimethyl-but-3-ynenitrile] | 2.29 nM | 2.1 nM
2 | CC(F)(F)C1(C#Cc2nccc3c2CCCN3c2nc(=O)[nH]c3cccc(F)c23)CC1 [Example 132, 4-[5-[2-[1-(1,1-difluoroethyl)cyclopropyl]ethynyl]-3,4-dihydro-2H-1,6-naphthyridin-1-yl]-5-fluoro-1H-quinazolin-2-one] | 9.96 nM | 66.1 nM
3 | O=c1nc(N2CCCCc3c(C#CC4(C(F)(F)F)CC4)cncc32)c2c(F)cccc2[nH]1 [Example 153] | 1.62 nM | 
4 | CC(C)(C#N)C#Cc1cccc2c1COCCN2c1nc(=O)[nH]c2ccc(F)c(F)c12 [Example 91, 4-[1-(5,6-difluoro-2-oxo-1H-quinazolin-4-yl)-3,5-dihydro-2H-4,1-benzoxazepin-6-yl]-2,2-dimethyl-but-3-ynenitrile] | 2.67 nM | 5.24 nM
5 | O=c1nc(N(CC(F)(F)F)c2cc(F)cc(C#CC3(C(F)(F)F)CC3)c2)c2cc(F)ccc2[nH]1 [Example 27, 6-fluoro-4-[3-fluoro-N-(2,2,2-trifluoroethyl)-5-[2-[1-(trifluoromethyl)cyclopropyl]ethynyl]anilino]-1H-quinazolin-2-one] | 3.27 nM | 97.3 nM
6 | CC1(C#Cc2cccc3c2COCCN3c2nc(=O)[nH]c3c(F)ccc(F)c23)CC1 [Example 145] | 3.19 nM | 13 nM
7 | O=c1nc(N2CCOCc3c(C#CC4(C(F)(F)F)CC4)cccc32)c2c(F)cccc2[nH]1 [Example 90] | 0.442 nM | 
8 | [2H]C([2H])([2H])n1c(=O)nc(N2CCOCc3c(C#CC(C)(C)NC(=O)C4(C(C)(F)F)CC4)cccc32)c2c(F)cccc21 [Example 180, 1-(1,1-difluoroethyl)-N-(4-(1-(5-fluoro-1-(methyl-d3)-2-oxo-1,2-dihydroquinazolin-4-yl)-1,2,3,5-tetrahydrobenzo[e][1,4]oxazepin-6-yl)-2-methylbut-3-yn-2-yl)cyclopropane-1-carboxamide] | 7.56 nM | 4.63 nM
9 | CCn1c(=O)nc(N2CCCc3c(C#CC4(C(F)(F)F)CC4)cccc32)c2c(F)cccc21 [Example 20, 1-ethyl-5-fluoro-4-[5-[2-[1-(trifluoromethyl)cyclopropyl]ethynyl]-3,4-dihydro-2H-quinolin-1-yl]quinazolin-2-one] | 0.875 nM | 293 nM
10 | CN(c1cccc(-c2ccc(N3CCCS3(=O)=O)cc2)c1)c1nc(=O)[nH]c2cc(Cl)ccc12 [Example 9, 7-chloro-4-[3-[4-(1,1-dioxo-1,2-thiazolidin-2-yl)phenyl]-N-methyl-anilino]-1H-quinazolin-2-one] | 5.03 nM | 33.3 nM
11 | [2H]C([2H])([2H])n1c(=O)nc(N2CCCc3c(C#CC4(C(F)(F)F)CC4)cccc32)c2c(F)cccc21 [Example 21, 5-fluoro-1-(trideuteriomethyl)-4-[5-[2-[1-(trifluoromethyl)cyclopropyl]ethynyl]-3,4-dihydro-2H-quinolin-1-yl]quinazolin-2-one] | 0.232 nM | 11.3 nM
12 | CC(C)(C#N)C#Cc1cccc2c1COCCN2c1nc(=O)[nH]c2cccc(F)c12 [Example 110, 4-(1-(5-fluoro-2-oxo-1,2-dihydroquinazolin-4-yl)-1,2,3,5-tetrahydrobenzo[e][1,4]oxazepin-6-yl)-2,2-dimethylbut-3-ynenitrile] | 2.82 nM | 6.52 nM
13 | O=c1nc(N(CC(F)F)c2ccnc(C#CC3CC3)c2F)c2c(F)cccc2[nH]1 [Example 122, 4-[[2-(2-cyclopropylethynyl)-3-fluoro-4-pyridyl]-(2,2-difluoroethyl)amino]-5-fluoro-1H-quinazolin-2-one] | 3.46 nM | 7 nM
14 | [2H]C([2H])([2H])n1c(=O)nc(N2CCCCc3c(C#CC4(C)CC4)cccc32)c2c(F)cccc21 [Example 86, 5-fluoro-4-[6-[2-(1-methylcyclopropyl)ethynyl]-2,3,4,5-tetrahydro-1-benzazepin-1-yl]-1-(trideuteriomethyl)quinazolin-2-one] | 0.133 nM | 1.13 nM
15 | O=c1nc(N2CCCc3c(C#CC4(C(F)(F)F)CC4)cncc32)c2c(F)cccc2[nH]1 [Example 71, 5-fluoro-4-(5-((1-(trifluoromethyl)cyclopropyl)ethynyl)-3,4-dihydro-1,7-naphthyridin-1(2H)-yl)quinazolin-2(1H)-one] | 1.43 nM | 18.4 nM
16 | O=c1nc(N2CCCCc3c(Br)cncc32)c2cc(F)ccc2[nH]1 [Example 163, 4-(6-bromo-2,3,4,5-tetrahydro-1H-pyrido[3,4-b]azepin-1-yl)-6-fluoroquinazolin-2(1H)-one] | 8.9 nM | 48.7 nM
17 | CC(C)(O)C#Cc1cc(F)cc(N(CC(F)F)c2nc(=O)[nH]c3ccc(F)c(F)c23)c1 [Example 65, 4-[N-(2,2-difluoroethyl)-3-fluoro-5-(3-hydroxy-3-methyl-but-1-ynyl)anilino]-5,6-difluoro-1H-quinazolin-2-one] | 9.92 nM | 13.4 nM

Row | SMILES | EC50 [1] | IC50 (human DGKα)
18 | CC(C)(C#Cc1cccc2c1COCCN2c1nc(=O)[nH]c2cccc(F)c12)NC(=O)C1(C(F)(F)F)CC1 [Example 158, N-(4-(1-(5-fluoro-2-oxo-1,2-dihydroquinazolin-4-yl)-1,2,3,5-tetrahydrobenzo[e][1,4]oxazepin-6-yl)-2-methylbut-3-yn-2-yl)-1-(trifluoromethyl)cyclopropane-1-carboxamide] | 11 nM | 9.31 nM
19 | CC1(C#Cc2cccc3c2CCCCN3c2nc(=O)[nH]c3cccc(F)c23)CC1 [Example 157, 5-fluoro-4-(6-((1-methylcyclopropyl)ethynyl)-2,3,4,5-tetrahydro-1H-benzo[b]azepin-1-yl)quinazolin-2(1H)-one] | 0.58 nM | 26 nM
20 | O=c1nc(N2CCCc3c(C#CC4(C(F)(F)F)CC4)cccc32)c2c(F)c(F)ccc2[nH]1 [Example 40, 5,6-difluoro-4-[5-[2-[1-(trifluoromethyl)cyclopropyl]ethynyl]-3,4-dihydro-2H-quinolin-1-yl]-1H-quinazolin-2-one] | 0.399 nM | 13.4 nM
21 | O=c1nc(N2CCCc3c(C#CC4(C(F)(F)F)CC4)cncc32)c2c(F)c(F)ccc2[nH]1 [Example 74, 5,6-difluoro-4-(5-((1-(trifluoromethyl)cyclopropyl)ethynyl)-3,4-dihydro-1,7-naphthyridin-1(2H)-yl)quinazolin-2(1H)-one] | 0.222 nM | 2.83 nM
22 | CC(C)(O)C#Cc1cccc2c1COCCN2c1nc(=O)[nH]c2c(F)ccc(F)c12 [Example 155] | 53.8 nM | 16.2 nM
23 | CC1(C#Cc2cncc3c2CCCN3c2nc(=O)[nH]c3ccc(F)c(F)c23)CC1 [Example 107, 5,6-difluoro-4-(5-((1-methylcyclopropyl)ethynyl)-3,4-dihydro-1,7-naphthyridin-1(2H)-yl)quinazolin-2(1H)-one] | 0.596 nM | 7.96 nM
24 | CC(C)(O)C#Cc1cccc(N(CC(F)F)c2nc(=O)[nH]c3cccc(F)c23)c1F [Example 59, 4-[N-(2,2-difluoroethyl)-2-fluoro-3-(3-hydroxy-3-methyl-but-1-ynyl)anilino]-5-fluoro-M-quinazolin-2-one] | 14.5 nM | 7.63 nM
25 | [2H]C([2H])([2H])n1c(=O)nc(N2CCCc3c(C#CC4CCN(C)C4)cccc32)c2c(F)cccc21 (stereo not shown) [Example 166, 5-fluoro-4-[5-[2-(1-methylpyrrolidin-3-yl)ethynyl]-3,4-dihydro-2H-quinolin-1-yl]-1-(trideuteriomethyl)quinazolin-2-one] | 6.71 nM | 71.5 nM
26 | O=c1nc(N(CC(F)(F)F)c2cccc(C#CC3(C(F)(F)F)CC3)c2)c2ccc(Cl)cc2[nH]1 [Example 24, 7-chloro-4-[N-(2,2,2-trifluoroethyl)-3-[2-[1-(trifluoromethyl)cyclopropyl]ethynyl]anilino]-1H-quinazolin-2-one] | 2.38 nM | 176 nM
27 | [2H]C([2H])([2H])n1c(=O)nc(N2CCCc3c(C#CC4(C(F)(F)F)CC4)cccc32)c2c(F)c(F)ccc21 [Example 42, 5,6-difluoro-1-(trideuteriomethyl)-4-[5-[2-[1-(trifluoromethyl)cyclopropyl]ethynyl]-3,4-dihydro-2H-quinolin-1-yl]quinazolin-2-one] | 0.311 nM | 9.48 nM
28 | CC(C)(C#Cc1nccc(N(CC(F)F)c2nc(=O)[nH]c3cccc(F)c23)c1F)C(F)(F)F [Example 125, 4-[2,2-difluoroethyl-[3-fluoro-2-(4,4,4-trifluoro-3,3-dimethyl-but-1-ynyl)-4-pyridyl]amino]-5-fluoro-1H-quinazolin-2-one] | 2.18 nM | 40.8 nM
29 | O=c1nc(N(CC(F)F)c2cc(F)cc(-c3cnc(C4CC4)cn3)c2)c2c(F)cccc2[nH]1 [Example 17, 4-[3-(5-cyclopropylpyrazin-2-yl)-N-(2,2-difluoroethyl)-5-fluoro-anilino]-5-fluoro-1H-quinazolin-2-one] | 1.23 nM | 30.1 nM
30 | [2H]C([2H])([2H])n1c(=O)nc(N2CCOCc3c(C#CC4(C(F)(F)F)CC4)cccc32)c2c(F)cccc21 [Example 100, 5-fluoro-1-(methyl-d3)-4-(6-((1-(trifluoromethyl)cyclopropyl)ethynyl)-2,3-dihydrobenzo[e][1,4]oxazepin-1(5H)-yl)quinazolin-2(1H)-one] | 0.979 nM | 16.6 nM
31 | O=c1nc(N(CC(F)F)c2ccnc(C#CC3(C(F)(F)F)CC3)c2)c2c(F)c(F)ccc2[nH]1 [Example 78] | 2.55 nM | 
32 | [2H]C([2H])([2H])n1c(=O)nc(N2CCOCc3c(C#CC4(C(F)(F)F)CC4)cccc32)c2c(F)c(F)ccc21 [Example 96] | 0.559 nM | 
33 | CC1(C#Cc2cccc3c2COCCN3c2nc(=O)[nH]c3cccc(F)c23)CC1 [Example 154] | 0.783 nM | 
